Test results taken from patent US9714212B2, “Chemical compounds derived from normemantine and use of same in the medical field” (M2I DEVELOPMENT, priority 2013, dated 2017).
pIC50: −log10 of the molar value.

Tests used:
NMDA receptors [1] = tested on: T1, NMDA receptors; test: Displacement of tritiated glutamate from cerebral cortex membrane homogenate (second experiment); type: binding; conditions: R0 Glu
T1 construct: Emission ratio 1st test (%); other: R0 Glu; [R1]; 1 · 10^−6 M; first test; Emission ratio 1st test (%); 1 · 10^−7 M; 1 · 10^−8 M; 1 · 10^−9 M
Source text: (§1) In this example, the affinity of fluoroethyl normemantine for NMDA receptors will be compared with that of glutamate (Glu) and of the product Dizocilpine (called “MK-801”), which are known NMDA receptor […] (see Neuroscience Letters, Vol. 80 (1), p. 111-114). MK-801 binds to two different sites in rat brain (Brain Res. 378, p. 133).
To that end, a material containing NMDA receptors will first be immersed in a solution containing labeled MK-801 (first experiment) or glutamate (second experiment) and then these materials are incubated in solutions containing fluoroethyl normemantine at various concentrations. Next, the radioactive emissions before and after this second incubation are compared. Lower emissions mean that fluoroethyl normemantine has a stronger affinity for NMDA receptors than that of the references and that NMDA receptors are inhibited thereby. […]
The experimental protocol is much the same as in the first experiment: a homogenate of cerebral cortex membrane (140 μg of protein) is prepared and then incubated for 1 hour at 4° C. with 5 nM tritiated glutamate (tritiated Glu) in the absence or presence of fluoroethyl normemantine (in buffer containing 5 mM Tris-HCl (pH=7.7) and 10 mM ethyleneglycol tetraacetic acid). […] The filters are dried and their radioactivity is counted on a scintillation counter. […]

[2] = Mouse study of distribution in the body; type: in vivo, mice C57/Black 6J
Method: (§2) All the mice are the species C57/Black 6J provided by Charles River Laboratories (France) and about 8 weeks old.
(§3) The volume administered to each mouse is defined as […] and is administered once intravenously by means of a suitable syringe and needle.
At the prescribed time the mice are sacrificed, ground material from the organs is extracted and the concentration therein is analyzed by HPLC-MS assays.

NMDA receptors [3] = tested on: T2, NMDA receptors; test: Displacement of tritiated MK-801 from cerebral cortex membrane homogenate (first experiment); type: binding; conditions: for pIC50: R0 MK-801, 2 hours at 37° C.
T2 construct: Emission ratio 1st test (%); other: R0 MK-801; [R1]; 1 · 10^−5 Mol/l; first test; Emission ratio 1st test (%); 1 · 10^−6 Mol/l; 1 · 10^−7 Mol/l; 1 · 10^−8 Mol/l; Emission ratio 1
Source text: as §1
To that end, a material containing NMDA receptors will first be immersed in a solution containing labeled MK-801 (first experiment) or glutamate (second experiment) and then these materials are incubated in solutions containing fluoroethyl normemantine at various concentrations. Next, the radioactive emissions before and after this second incubation are compared. Lower emissions mean that fluoroethyl normemantine has a stronger affinity for NMDA receptors than that of the references and that NMDA receptors are inhibited thereby.
By means of these measurements, a correlation can be established between the concentration of the compound IE and NMDA receptor inhibition. The magnitude of the half-maximal inhibitory concentration (IC50) is deduced therefrom.
As the product to be tested (product R1), either memantine or compound I is used. The experimental protocol is as follows: a homogenate of cerebral cortex membrane (140 μg of proteins) is prepared and then incubated for 2 hours at 37° C. with 10 nM […] (tritiated MK-801) in the absence or presence of compound R1 (in buffer containing 5 mM HEPES/Tris (pH=7.4) and 0.1 mM ethyleneglycol tetraacetic acid). The comparison is made with an incubation of […] MK-801. The samples are quickly filtered under vacuum through glass-fiber filters and rinsed with 50 mM iced Tris-HCl. The filters are dried and their radioactivity is counted on a scintillation counter. The concentration of compound R1 varies, and by comparing for each concentration the difference in emission between the control filter (MK-801 alone) and the MK-801/R1 mixture filter, the ratio of inhibition of compound R1 for each concentration is obtained.

[4] = Toxicity after a single intravenous administration in mice; type: in vivo, mice C57/Black 6J; conditions: male mice, single 0.125 μg/kg intravenously
Method: as §2, §3

Solubility in water = type: physicochemical
[5] = Lipophilicity log(P), n-octanol / pH 7.4 buffer, HPLC; type: physicochemical; conditions: 50/50 by volume pH 7.4 buffer solution and octanol
Source text: Lipophilicity: determined by log(P)=log([I]n-octanol/[I]water), by placing the compound (I) in a 50/50 mixture by volume of pH 7.4 buffer solution and octanol, separating the phases, then assaying by means of HPLC the level of the compound (I) present in each of said phases.

[6] = mice, 0.125 μg/kg intravenously, sacrifice at 3 minutes

## NC12CC3CC(C1)CC(CCF)(C3)C2 [Fluoroethyl normemantine]
NMDA receptors [1]
  ability to displace Glu: unable to displace Glu
NMDA receptors [1]; 1 hour at 4° C.
  IC50: cannot be measured
[2]; comparison sentence of b89, time not restated
  affinity for the brain (share in brain), comparison with prior art: 12%
NMDA receptors [3]; R0 MK-801
  affinity, order of magnitude: ~10^−6 M
  displacement of MK-801: displaces MK-801
NMDA receptors [3]
  pIC50: 5.21

## CC12CC3CC(C)(C1)CC(N)(C3)C2 [Memantine]
NMDA receptors [3]; R0 MK-801
  affinity, order of magnitude: ~10^−6 M
NMDA receptors [3]
  pIC50: 5.96
NMDA receptors [3]; R0 MK-801, [R1] 1 · 10^−5 Mol/l
  Mean (emission ratio): 10.8%
NMDA receptors [3]; R0 MK-801, [R1] 1 · 10^−6 Mol/l
  Mean (emission ratio): 52.3%
NMDA receptors [3]; R0 MK-801, [R1] 1 · 10^−7 Mol/l
  Mean (emission ratio): 88.8%
NMDA receptors [3]; R0 MK-801, [R1] 1 · 10^−8 Mol/l
  Mean (emission ratio): 101.4%
NMDA receptors [3]; R0 MK-801, [R1] 1 · 10^−9 Mol/l
  Mean (emission ratio): 96.9%
NMDA receptors [3]; R0 MK-801, [R1] 3 · 10^−6 Mol/l
  Mean (emission ratio): 29.0%
NMDA receptors [3]; R0 MK-801, [R1] 3 · 10^−7 Mol/l
  Mean (emission ratio): 73.1%
NMDA receptors [3]; R0 MK-801, [R1] 3 · 10^−8 Mol/l
  Mean (emission ratio): 97.5%
NMDA receptors [3]; R0 MK-801, [R1] 3 · 10^−9 Mol/l
  Mean (emission ratio): 103.3%

## NC12CC3CC(C1)CC(CCF)(C3)C2 [^18F-fluoroethyl normemantine]
[4]
  toxicity (conclusion): not toxic at the doses tested
Solubility in water
  solubility: > 100 mM
[2]; [6]
  Brain: % of the injected dose: 12 % of the injected dose
  Kidneys: share of injected dose: 18%
  Liver: share of injected dose: 20%

## NC12CC3CC(C1)CC(CCF)(C3)C2 [compound (I)]
[5]
  log(P): 3.1 (±0.5)
